Type in all cases: cell-based
The target in assay [1] is Kappa-type opioid receptor (Cavia porcellus, UniProt P41144). In words: Binding affinity towards Opioid receptor kappa 1 using [3H]diprenorphine as radioligand in Chinese hamster ovary cells expressing cloned opioid receptors.
In assay [2] the target is Delta-type opioid receptor (Rattus norvegicus, UniProt P33533). In words: Binding affinity towards Opioid receptor delta 1 using [3H]DPDPE as radioligand in Chinese hamster ovary cells expressing cloned opioid receptors.
In assay [3] the target is Kappa-type opioid receptor (Rattus norvegicus) (UniProt P34975). In words: Tested for maximum percentage inhibition against cloned rat Opioid receptor kappa 1 stably expressed in CHO cells by adenylyl cyclase assay.
The next assay has as its target Mu-type opioid receptor (Homo sapiens, UniProt P35372). In words: Binding affinity towards Opioid receptor mu 1 using [3H]DAMGO as radioligand in Chinese hamster ovary cells expressing cloned opioid receptors.

These results are taken from ChEMBL document CHEMBL1136748, “A novel N-terminal cyclic dynorphin A analogue cyclo(N,5)[Trp(3),Trp(4),Glu(5)] dynorphin A-(1-11)NH(2) that lacks the basic N-terminus” (J Med Chem, 2003).

Where a SMILES comes first, the peptide text is derived from it. Bridges are numbered along the chain shown (N, C = ends). [ ]: non-standard residue; d: D form.

Sequence of Delta-type opioid receptor (P33533 whole entry): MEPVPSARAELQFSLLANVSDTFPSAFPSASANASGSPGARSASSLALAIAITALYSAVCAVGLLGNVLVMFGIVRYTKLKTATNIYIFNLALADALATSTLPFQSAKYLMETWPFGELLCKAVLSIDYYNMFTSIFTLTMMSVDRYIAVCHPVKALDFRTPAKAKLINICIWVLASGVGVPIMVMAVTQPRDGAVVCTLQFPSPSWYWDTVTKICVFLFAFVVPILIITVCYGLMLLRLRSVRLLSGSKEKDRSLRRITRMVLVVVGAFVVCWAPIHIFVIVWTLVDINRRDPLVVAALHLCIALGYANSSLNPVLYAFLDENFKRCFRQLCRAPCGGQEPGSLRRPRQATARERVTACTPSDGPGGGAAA
Sequence of Kappa-type opioid receptor (Rattus norvegicus) (P34975 whole entry): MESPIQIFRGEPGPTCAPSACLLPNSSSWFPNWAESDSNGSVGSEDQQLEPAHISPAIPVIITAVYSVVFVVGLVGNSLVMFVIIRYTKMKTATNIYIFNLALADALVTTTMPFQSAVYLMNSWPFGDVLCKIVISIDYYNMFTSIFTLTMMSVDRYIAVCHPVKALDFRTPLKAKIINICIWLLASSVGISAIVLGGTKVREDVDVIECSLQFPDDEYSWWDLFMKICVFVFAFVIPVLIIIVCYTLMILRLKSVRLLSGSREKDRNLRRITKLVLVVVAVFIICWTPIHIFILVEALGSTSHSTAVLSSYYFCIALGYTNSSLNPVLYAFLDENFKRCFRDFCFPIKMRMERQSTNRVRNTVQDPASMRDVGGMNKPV
Sequence of Kappa-type opioid receptor (P41144 whole entry): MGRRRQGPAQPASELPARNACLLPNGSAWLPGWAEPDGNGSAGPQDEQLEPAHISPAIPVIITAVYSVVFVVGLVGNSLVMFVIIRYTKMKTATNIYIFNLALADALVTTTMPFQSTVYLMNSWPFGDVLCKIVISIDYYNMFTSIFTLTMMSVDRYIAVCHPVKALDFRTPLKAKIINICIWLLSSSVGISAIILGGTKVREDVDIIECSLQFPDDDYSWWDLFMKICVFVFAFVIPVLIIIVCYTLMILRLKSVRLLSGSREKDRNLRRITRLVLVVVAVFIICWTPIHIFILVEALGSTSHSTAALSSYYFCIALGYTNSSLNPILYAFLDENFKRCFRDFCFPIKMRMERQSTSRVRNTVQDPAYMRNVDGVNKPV
Sequence of Mu-type opioid receptor (P35372 whole entry): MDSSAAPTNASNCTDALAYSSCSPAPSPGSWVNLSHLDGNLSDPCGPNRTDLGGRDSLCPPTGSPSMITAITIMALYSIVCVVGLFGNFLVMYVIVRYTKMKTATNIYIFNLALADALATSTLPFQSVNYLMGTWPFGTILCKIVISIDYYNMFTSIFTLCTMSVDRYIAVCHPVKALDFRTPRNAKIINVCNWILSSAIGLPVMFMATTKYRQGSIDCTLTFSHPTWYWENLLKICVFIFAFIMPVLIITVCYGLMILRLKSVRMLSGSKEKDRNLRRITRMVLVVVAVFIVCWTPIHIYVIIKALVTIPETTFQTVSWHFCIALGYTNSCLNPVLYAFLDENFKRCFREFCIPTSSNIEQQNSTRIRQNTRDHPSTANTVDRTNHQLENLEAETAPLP

In the case of `CC(=O)N[C@@H](Cc1ccc(O)cc1)C(=O)N[C@@H](CCCCN)C(=O)N[C@@H](Cc1c[nH]c2ccccc12)C(=O)N[C@@H](Cc1c[nH]c2ccccc12)C(=O)N[C@@H](CC(C)C)C(=O)N[C@@H](CCCN=C(N)N)C(=O)N[C@@H](CCCN=C(N)N)C(=O)N[C@H](C)C(=O)N[C@@H](CCCN=C(N)N)C(=O)N1CCC[C@H]1C(=O)N[C@@H](CCCCN)C(N)=O` [VENORPHIN] (Ac-YKWWLRR[dA]RPK-NH2), the Ki (commonly a dissociation constant, usually derived from enzyme kinetics or from competition with a known ligand) in assay [1] came out at 19.8 nM; in assay [2] it was 5320 nM. Consider `CC[C@H](C)[C@H](NC(=O)[C@H](CCCN=C(N)N)NC(=O)[C@H](CCCN=C(N)N)NC(=O)[C@@H]1CCC(=O)N[C@@H](Cc2ccc(O)cc2)C(=O)NCC(=O)N[C@@H](Cc2c[nH]c3ccccc23)C(=O)N[C@@H](Cc2c[nH]c3ccccc23)C(=O)N1)C(=O)N[C@@H](CCCN=C(N)N)C(=O)N1CCC[C@@H]1C(=O)N[C@@H](CCCCN)C(=O)O`, for which, in assay [3], the inhibition (commonly the drop in the measured response relative to a control, in per cent) worked out at 8%. The same measure, in the same setting: as for `CC(=O)N[C@@H](Cc1ccc(O)cc1)C(=O)NCC(=O)N[C@@H](Cc1c[nH]c2ccccc12)C(=O)N[C@@H](Cc1c[nH]c2ccccc12)C(=O)N[C@@H](CC(C)C)C(=O)N[C@@H](CCCN=C(N)N)C(=O)N[C@@H](CCCN=C(N)N)C(=O)N[C@@H](C)C(=O)N[C@@H](CCCN=C(N)N)C(=O)N1CCC[C@H]1C(=O)N[C@@H](CCCCN)C(N)=O`, the figure is 15%.

For the compound `CC[C@H](C)[C@H](NC(=O)[C@H](CCCNC(=N)N)NC(=O)[C@H](CCCNC(=N)N)NC(=O)[C@@H]1CCC(=O)N[C@@H](Cc2ccc(O)cc2)C(=O)NCC(=O)N[C@@H](Cc2c[nH]c3ccccc23)C(=O)N[C@@H](Cc2c[nH]c3ccccc23)C(=O)N1)C(=O)N[C@@H](CCCNC(=N)N)C(=O)N1CCC[C@H]1C(=O)N[C@@H](CCCCN)C(N)=O` (YGWWERRIRPK-NH2; lactam N-5), the results for the Ki (in assay [1]; in assay [2]; at Mu-type opioid receptor) were 26.8 nM, above 8900 nM and 331 nM, respectively. In the case of Ac-YKWWLRRARPK-NH2, the inhibition in assay [3] was 28%. For `CC(=O)N[C@@H](Cc1ccc(O)cc1)C(=O)NCC(=O)N[C@@H](Cc1c[nH]c2ccccc12)C(=O)N[C@@H](Cc1c[nH]c2ccccc12)C(=O)N[C@@H](CC(C)C)C(=O)N[C@@H](CCCN=C(N)N)C(=O)N[C@@H](CCCN=C(N)N)C(=O)N[C@H](C)C(=O)N[C@@H](CCCN=C(N)N)C(=O)N1CCC[C@H]1C(=O)N[C@@H](CCCCN)C(N)=O` [[GLY2]VENORPHIN], the Ki in assay [1] is 8.4 nM; in assay [2] it was above 10000 nM; at Mu-type opioid receptor, 339 nM.
